From patent publication US20200164025A1, “AN[…] E[…] AND ACE2 BY BRG1-FOXM1 COMPLEX UNDERLIES PA[…] HYPERTROPHY” (INDIANA UNIVERSITY RESEARCH AND TECHNOLOGY CORPORATION, priority 2014, published 2020)

Legend:
TAC-stressed hearts = test: TAC pressure-overload cardiac hypertrophy in mice treated with thiostrepton; format: in vivo
Method: (§1) FoxM1 is a transcription factor that regulates the expression of genes associated with pathological hypertrophy. […] However, FoxM1 mRNA increased by 8.4-fold in TAC-stressed hearts (FIG. 6A), and the protein was present in the nuclei of both myocytes and endothelial cells of stressed hearts (FIGS. 6B and 6C). Because of the stress-induced endothelial expression of FoxM1, it was evaluated if FoxM1 cooperated with Brg1 to regulate Ace and Ace2 expression. The necessity of FoxM1 activation for cardiac hypertrophy by using FoxM1 inhibitor thiostrepton to inhibit FoxM1 in TAC-stressed hearts was tested. Within 4 weeks after TAC, the control mice injected with DMSO developed severe cardiac hypertrophy with increased ventricle-body weight ratio, interstitial fibrosis, and cardiac dysfunction with reduced left ventricular fractional shortening (FS) (FIGS. 6D, 6E, and 6G). […] Collectively, these findings indicate that FoxM1 activation by stress is necessary for cardiac myopathy and for stress-induced changes of Ace and Ace2.

Ace and Ace2 = test: Western blot analysis of Ace and Ace2 in heart ventricles of thiostrepton treated mice after TAC; format: in vivo; settings: 2 weeks after TAC
Method: as §1

Ace and Ace2 promoter = test: Luciferase reporter assays of Ace and Ace2 proximal promoters in mouse cardiac endothelial cells; format: cell-based; settings: MCEC cells
Method: The transcriptional activity of Brg1 on the Ace and Ace2 promoters was also tested. 3.1 kb of Ace upstream promoter (−2983 bp to +174 bp) and 7.8 Kb of Ace2 upstream promoter (−7063 bp to +786 bp) were cloned into the episomal reporter pREP4 that undergoes chromatinization in mammalian cells. The reporter constructs and Brg1-expressing plasmid were transfected into mouse cardiac endothelial cells. In these cells, Brg1 caused a 1.7-fold increase in Ace promoter activity and 59% reduction in Ace2 promoter activity (FIG. 5P). Combined with the ChIP results, these reporter studies indicate that Brg1 activates Ace promoter and represses Ace2 promoter, providing a mechanism for the antithetical changes of Ace and Ace2 in stressed hearts.
Inhibition of FoxM1 by thiostrepton eliminated the ability of Brg to activate Ace and repress Ace2 promoter (FIGS. 10F and 10G).

C=C(NC(=O)C(=C)NC(=O)c1csc(C2=N[C@@H]3c4csc(n4)[C@H]4NC(=O)c5csc(n5)[C@H]([C@](C)(O)[C@@H](C)O)NC(=O)[C@H]5CSC(=N5)/C(=C/C)NC(=O)[C@H]([C@@H](C)O)NC(=O)c5csc(n5)[C@]3(CC2)NC(=O)[C@H](C)NC(=O)C(=C)NC(=O)[C@H](C)NC(=O)[C@H]([C@@H](C)CC)N[C@@H]2C=Cc3c([C@H](C)O)cc(nc3[C@H]2O)C(=O)O[C@@H]4C)n1)C(N)=O [thiostrepton]
improvement of left ventricular fractional shortening (FS) (TAC-stressed hearts; 4 weeks after TAC, echocardiography, vs DMSO control): 28% | reduction of hypertrophy (ventricle-body weight ratio) (TAC-stressed hearts; 4 weeks after TAC, vs DMSO control): ~50% | cardiac dysfunction (TAC-stressed hearts; within 4 weeks after TAC): lesser degree of cardiac dysfunction | interstitial fibrosis (TAC-stressed hearts; within 4 weeks after TAC, trichrome staining): mild interstitial fibrosis | cardiac hypertrophy (TAC-stressed hearts; within 4 weeks after TAC, vs DMSO control): mild cardiac hypertrophy | TAC-induced changes of Ace and Ace2 (Ace and Ace2; Western blot of heart ventricles): abolished | reduction of Ace/Ace2 ratio in stressed hearts (Ace and Ace2; Western blot quantitation): 6.53 fold | ability of Brg to activate Ace and repress Ace2 promoter (Ace and Ace2 promoter): eliminated
